Assay results taken from US9670227B2, “Thienopyrimidine derivatives, a process for their preparation and pharmaceutical compositions containing them” (LES LABORATOIRES SERVIER, priority 2013, dated 2017).
Where two headings read alike, the source gives them in different places.

Target: Mcl-1 protein (UniProtKB primary accession number: Q07820) (Homo sapiens, UniProt Q07820)
Test: Inhibition of Mcl-1 by fluorescence polarisation, Method 1
Assay type: binding
Details: for IC50: read-out: IC50 (M) Mcl-1 FP
Method in brief: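 FP competition, 11-point compound titration in 5% final DMSO; protein and labelled probe at 5 nM and 1 nM final in HEPES/NaCl/Tween 20 buffer, pH 7.4.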

[1] = fluorescence polarisation test, Method 2 values are underlined in the patent (underlining not visible here)
[2] = fluorescence polarisation, Method 1, or Method 2
[3] = fluorescence polarisation test, Method 1, or Method 2 where the value is underlined (underlining not visible)

Sequence of Mcl-1 protein (Q07820 whole entry): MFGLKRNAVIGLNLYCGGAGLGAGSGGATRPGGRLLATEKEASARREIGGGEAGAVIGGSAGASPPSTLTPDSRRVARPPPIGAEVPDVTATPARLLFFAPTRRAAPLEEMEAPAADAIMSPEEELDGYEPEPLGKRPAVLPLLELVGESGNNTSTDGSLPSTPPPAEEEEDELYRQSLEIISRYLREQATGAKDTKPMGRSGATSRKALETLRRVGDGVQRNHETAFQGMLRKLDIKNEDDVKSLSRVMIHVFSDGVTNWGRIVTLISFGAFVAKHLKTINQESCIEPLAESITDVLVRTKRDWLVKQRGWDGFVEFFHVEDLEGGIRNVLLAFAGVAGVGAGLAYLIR

SMILES | IC50 [1] [M] | IC50 [2] [M] | other results
COc1ccccc1CC(Oc1ncnc2sc(-c3ccco3)c(-c3ccc(OCCN4CCN(c5ccccc5)CC4)c(Cl)c3C)c12)C(=O)O [Example 325, (2R)-2-{[(5Sa)-5-{3-chloro-2-methyl-4-[2-(4-phenylpiperazin-1-yl)ethoxy]phenyl}-6-(furan-2-yl)thieno[2,3-d]pyrimidin-4-yl]oxy}-3-(2-methoxyphenyl)propanoic acid] | 5.2e-08 |  | 
COc1ncc(Br)c(COc2ccccc2C[C@@H](Oc2ncnc3sc(-c4ccc(F)cc4)c(-c4ccc(OCCN5CCN(C)CC5)c(Cl)c4C)c23)C(=O)O)n1 [Example 99, (2R)-3-{2-[(5-bromo-2-methoxypyrimidin-4-yl)methoxy]phenyl}-2-{[(5Sa)-5-{3-chloro-2-methyl-4-[2-(4-methylpiperazin-1-yl)ethoxy]phenyl}-6-(4-fluorophenyl)thieno[2,3-d]pyrimidin-4-yl]oxy}propanoic acid] | 2e-08 |  | 
Cc1c(-c2c(-c3ccc(F)cc3)sc3ncnc(OC(Cc4ccccc4OCC(F)(F)F)C(=O)O)c23)ccc(OCC2CCCN2C)c1Cl (single isomer, unassigned) [Example 659, (2R)-2-{[(5Sa)-5-{3-chloro-2-methyl-4-[((2R or S)-1-methylpyrrolidin-2-yl)methoxy]phenyl}-6-(4-fluorophenyl)thieno[2,3-d]pyrimidin-4-yl]oxy}-3-[2-(2,2,2-trifluoroethoxy)phenyl]propanoic acid] |  | 2.2e-08 | 
COCCCc1sc2ncnc(OC(Cc3ccccc3OCc3ccnc(OC)n3)C(=O)O)c2c1-c1ccc(OCCN2CCN(C)CC2)c(Cl)c1C [Example 599, (2R)-2-{[(5Sa)-5-{3-chloro-2-methyl-4-[2-(4-methylpiperazin-1-yl)ethoxy]phenyl}-6-(3-methoxypropyl)thieno[2,3-d]pyrimidin-4-yl]oxy}-3-{2-[(2-methoxypyrimidin-4-yl)methoxy]phenyl}propanoic acid] |  | 1.1e-08 | 
Cc1sccc1-c1sc2ncnc(OC(Cc3ccccc3)C(=O)O)c2c1-c1ccc(OCCN2CCN(C)CC2)c(Cl)c1C [Example 511, (2R)-2-{[(5Sa)-5-{3-chloro-2-methyl-4-[2-(4-methylpiperazin-1-yl)ethoxy]phenyl}-6-(2-methylthiophen-3-yl)thieno[2,3-d]pyrimidin-4-yl]oxy}-3-phenylpropanoic acid] |  | 4.8e-07 | 
CCc1sc2ncnc(OC(Cc3ccccc3)C(=O)O)c2c1-c1cccc(Cl)c1C [Example 451, (2R)-2-{[(5Ra)-5-(3-chloro-2-methylphenyl)-6-ethylthieno[2,3-d]pyrimidin-4-yl]oxy}-3-phenylpropanoic acid] |  | 5.8e-07 | 
COc1ccccc1CC(Oc1ncnc2sc(-c3ccco3)c(-c3ccc(OCC4CNCCO4)c(Cl)c3C)c12)C(=O)O [Example 315, (2R)-2-({(5Sa)-5-[3-chloro-2-methyl-4-(morpholin-2-ylmethoxy)phenyl]-6-(furan-2-yl)thieno[2,3-d]pyrimidin-4-yl}oxy)-3-(2-methoxyphenyl)propanoic acid] | 2.2e-08 |  | 
COCCCc1ccccc1CC(Oc1ncnc2sc(-c3ccc(F)cc3)c(-c3ccc(OCCN4CCN(C)CC4)c(Cl)c3C)c12)C(=O)O [Example 655, (2R)-2-{[(5Sa)-5-{3-chloro-2-methyl-4-[2-(4-methylpiperazin-1-yl)ethoxy]phenyl}-6-(4-fluorophenyl)thieno[2,3-d]pyrimidin-4-yl]oxy}-3-[2-(3-methoxypropyl)phenyl]propanoic acid] |  | 2.6e-08 | 
Cc1c(-c2c(-c3cccc(F)c3F)sc3ncnc(OC(Cc4ccccc4OCc4ccnn4C(C)(C)C)C(=O)OCC(=O)N(C)C)c23)ccc(OCCN(C)C)c1Cl [Example 825, 2-(dimethylamino)-2-oxoethyl (2R)-3-{2-[(1-tert-butyl-1H-pyrazol-5-yl)methoxy]phenyl}-2-{[(5Sa)-5-{3-chloro-4-[2-(dimethylamino)ethoxy]-2-methylphenyl}-6-(2,3-difluorophenyl)thieno[2,3-d]pyrimidin-4-yl]oxy}propanoate] |  |  | IC50 [3]: 5.82e-07 M
Cc1c(-c2c(-c3ccc(F)cc3)sc3ncnc(OC(Cc4ccccc4OCC4CCCO4)C(=O)O)c23)ccc(OCCN2CCN(C)CC2)c1Cl [Example 2, (2R)-2-{[(5Sa)-5-{3-chloro-2-methyl-4-[2-(4-methylpiperazin-1-yl)ethoxy]phenyl}-6-(4-fluorophenyl)thieno[2,3-d]pyrimidin-4-yl]oxy}-3-{2-[(2R)-tetrahydrofuran-2-ylmethoxy]phenyl}propanoic acid] | 1.2e-08 |  | 
COc1nccc(COc2ccccc2CC(Oc2ncnc3sc(-c4ccc(F)o4)c(-c4ccc(OCCN5CCN(C)CC5)c(Cl)c4C)c23)C(=O)O)n1 [Example 176, (2R)-2-{[(5Sa)-5-{3-chloro-2-methyl-4-[2-(4-methylpiperazin-1-yl)ethoxy]phenyl}-6-(5-fluorofuran-2-yl)thieno[2,3-d]pyrimidin-4-yl]oxy}-3-{2-[(2-methoxypyrimidin-4-yl)methoxy]phenyl}propanoic acid] | 3.1e-09 |  | 
CCc1sc2ncnc(O[C@@H](Cc3cccc4ccoc34)C(=O)O)c2c1-c1ccc(OCCN2CCN(C)CC2)c(Cl)c1C [Example 462, (2S)-3-(1-benzofuran-7-yl)-2-[((5Ra)-5-{3-chloro-2-methyl-4-[2-(4-methylpiperazin-1-yl)ethoxy]phenyl}-6-ethylthieno[2,3-d]pyrimidin-4-yl)oxy]propanoic acid] |  | 3.7e-05 | 
Cc1c(-c2c(-c3ccc(F)cc3)sc3ncnc(OC(Cc4ccccc4OCc4ccnn4C(C)(C)C)C(=O)O)c23)ccc(OCCN2CCN(C)CC2)c1Cl [Example 70, (2R)-3-{2-[(1-tert-butyl-1H-pyrazol-5-yl)methoxy]phenyl}-2-{[(5Sa)-5-{3-chloro-2-methyl-4-[2-(4-methylpiperazin-1-yl)ethoxy]phenyl}-6-(4-fluorophenyl)thieno[2,3-d]pyrimidin-4-yl]oxy}propanoic acid] | 1.6e-09 |  | 
Cc1c(-c2c(-c3ccco3)sc3ncnc(O[C@@H](C(=O)O)[C@@H](O)c4ccccc4)c23)ccc(OCCN2CCN(C)CC2)c1Cl (single isomer, unassigned) [Example 343] | 2.5e-07 |  | 
Cc1c(-c2c(-c3ccc(F)cc3)sc3ncnc(OC(Cc4ccccc4OCc4ccnn4C(C)(C)C)C(=O)OCC(=O)N(C)C)c23)ccc(OCCN(C)C)c1Cl [Example 817, 2-(dimethylamino)-2-oxoethyl (2R)-3-{2-[(1-tert-butyl-1H-pyrazol-5-yl)methoxy]phenyl}-2-{[(5Sa)-5-{3-chloro-4-[2-(dimethylamino)ethoxy]-2-methylphenyl}-6-(4-fluorophenyl)thieno[2,3-d]pyrimidin-4-yl]oxy}propanoate] |  |  | IC50 [3]: 4.75e-07 M
Cc1cnccc1-c1nccc(COc2ccccc2CC(Oc2ncnc3sc(-c4ccc(F)cc4)c(-c4ccc(OCCN5CCN(C)CC5)c(Cl)c4C)c23)C(=O)O)n1 [Example 120, (2R)-2-{[(5Sa)-5-{3-chloro-2-methyl-4-[2-(4-methylpiperazin-1-yl)ethoxy]phenyl}-6-(4-fluorophenyl)thieno[2,3-d]pyrimidin-4-yl]oxy}-3-(2-{[2-(3-methylpyridin-4-yl)pyrimidin-4-yl]methoxy}phenyl)propanoic acid] | 3.8e-09 |  | 
COc1nccc(COc2ccccc2C[C@@H](Oc2ncnc3sc(-c4ccc(F)c(OCCN(C)C)c4)c(-c4ccc(OC)c(Cl)c4C)c23)C(=O)O)n1 [Example 701, (2R)-2-{[(5Ra)-5-(3-chloro-4-methoxy-2-methylphenyl)-6-{3-[2-(dimethylamino)ethoxy]-4-fluorophenyl}thieno[2,3-d]pyrimidin-4-yl]oxy}-3-{2-[(2-methoxypyrimidin-4-yl)methoxy]phenyl}propanoic acid] |  |  | percentage fluorescence polarisation inhibition, Mcl-1 FP (partial inhibitors, @ 1 uM test compound): 40.75% @ 1 uM
CC#Cc1sc2ncnc(OC(Cc3ccccc3OC)C(=O)O)c2c1-c1ccc(O)c(Cl)c1C [Example 480, (2R)-2-{[(5Sa)-5-(3-chloro-4-hydroxy-2-methylphenyl)-6-(prop-1-yn-1-yl)thieno[2,3-d]pyrimidin-4-yl]oxy}-3-(2-methoxyphenyl)propanoic acid] |  | 2.8e-08 | 
[2H]C([2H])([2H])Oc1ccccc1-c1nccc(COc2ccccc2CC(Oc2ncnc3sc(-c4ccc(F)cc4)c(-c4ccc(OCCN5CCN(C)CC5)c(Cl)c4C)c23)C(=O)OCC)n1 [Example 839, ethyl (2R)-2-{[(5Sa)-5-{3-chloro-2-methyl-4-[2-(4-methylpiperazin-1-yl)ethoxy]phenyl}-6-(4-fluorophenyl)thieno[2,3-d]pyrimidin-4-yl]oxy}-3-{2-[(2-{2-[(^2H3)methyloxy]phenyl}pyrimidin-4-yl)methoxy]phenyl}propanoate] |  |  | IC50 [3]: 6.91e-07 M

Second part, led by results:

IC50 [1] [M] | IC50 [2] [M] | SMILES | other results
 | 9.48e-10 | COc1cnc(C)cc1-c1nccc(COc2ccccc2CC(Oc2ncnc3sc(-c4ccc(F)cc4)c(-c4ccc(OCCN5CCN(C)CC5)c(Cl)c4C)c23)C(=O)O)n1 [Example 734, (2R)-2-{[(5Sa)-5-{3-chloro-2-methyl-4-[2-(4-methylpiperazin-1-yl)ethoxy]phenyl}-6-(4-fluorophenyl)thieno[2,3-d]pyrimidin-4-yl]oxy}-3-(2-{[2-(5-methoxy-2-methylpyridin-4-yl)pyrimidin-4-yl]methoxy}phenyl)propanoic acid] | 
 | 1.6e-08 | COc1ccccc1CC(Oc1ncnc2sc(-c3cccc(OCCN4CCN(C)CC4)c3)c(-c3ccc(OC)c(Cl)c3C)c12)C(=O)O [Example 713, (2R)-2-{[(5Sa)-5-(3-chloro-4-methoxy-2-methylphenyl)-6-{3-[2-(4-methylpiperazin-1-yl)ethoxy]phenyl}thieno[2,3-d]pyrimidin-4-yl]oxy}-3-(2-methoxyphenyl)propanoic acid] | 
 | 8.9e-07 | CCc1sc2ncnc(O[C@@H](Cc3ccccc3OC)C(=O)O)c2c1-c1ccc(O)c(Cl)c1C (single isomer, unassigned) [Example 679] | 
